According to US20080312164A1 (priority 2006, published 2008):
Read-outs that look alike come from different tables or passages of the source. Marks after values point to notes of the source that are not given here.

Assays:
HCT-116 cells [1] = details: literature (27, 35); cited from earlier work
several cell lines = details: reported; cited from earlier work
NCI-H460 cells [2] = assay: Calcein AM cytotoxicity assay, NCI-H460; type: cell-based; details: Homo sapiens; NCI-H460, Calcein AM, 72 h; read-out: IC50
Text: (§1) Five serial 1:2 dilutions were made with anhydrous DMSO at 100× the final concentration used in the assay.

SF-268 cells [3] = assay: Calcein AM cytotoxicity assay, SF-268; type: cell-based; details: Homo sapiens; SF-268, Calcein AM, 72 h; read-out: IC50
Text: as §1

MCF7 cells [4] = assay: Cell Titer-Glo cytotoxicity assay, MCF7; type: cell-based, human; details: Homo sapiens; MCF7, Cell Titer-Glo, 72 h; read-out: IC50
Text: as §1

SK-OV-3 cells [5] = assay: Calcein AM cytotoxicity assay, SK-OV-3; type: cell-based; details: Homo sapiens; SK-OV-3, Calcein AM, 72 h; read-out: IC50
Text: as §1

NCI/ADR RES cells [6] = assay: Calcein AM cytotoxicity assay, NCI/ADR-RES; type: cell-based; details: Homo sapiens, Calcein AM, 72 h, read-out: IC50
Text: as §1

[7] = tested on: NmuMG mouse mammary normal epithelial cells; assay: Calcein AM cytotoxicity assay, NmuMG; type: cell-based; details: Epithelial cell, NmuMG, Calcein AM, 72 h, read-out: IC50
Text: as §1

HCT-116 cells [8] = assay: Calcein AM cytotoxicity assay, HCT-116; type: cell-based; details: Homo sapiens; HCT-116, Calcein AM, 72 h; read-out: IC50
Text: as §1

[9] = tested on: NmuMG mouse mammary normal epithelial cells; assay: Cell Titer-Glo cytotoxicity assay, NmuMG; type: cell-based; details: Mus musculus, Epithelial cell; NmuMG, Cell Titer-Glo, 72 h; read-out: IC50
Text: as §1

NmuMG Cell Line = assay: Cytotoxicity in NmuMG cell line, summary table (assay not stated); type: cell-based; details: Mus musculus, assay not stated (mostly Cell Titer-Glo values; Calcein AM values for 20, 24, 39)
Text: as §1

HCT-116 cells [10] = assay: Cell Titer-Glo cytotoxicity assay, HCT-116; type: cell-based; details: Homo sapiens; HCT-116, Cell Titer-Glo, 72 h; read-out: IC50
Text: as §1

Hep3B cells [11] = assay: Cell Titer-Glo cytotoxicity assay, Hep3B; type: cell-based; details: Homo sapiens, Cell Titer-Glo, 72 h, read-out: IC50
Text: as §1

Hep3B cells [12] = assay: Calcein AM cytotoxicity assay, Hep3B; type: cell-based; details: Homo sapiens, Calcein AM, 72 h, read-out: IC50
Text: as §1

Du145 cells [13] = assay: Calcein AM cytotoxicity assay, Du145; type: cell-based; details: Homo sapiens, DU-145; Du145, Calcein AM, 72 h; read-out: IC50
Text: as §1

Du145 cells [14] = assay: Cell Titer-Glo cytotoxicity assay, Du145; type: cell-based; details: Homo sapiens, DU-145; Du145, Cell Titer-Glo, 72 h; read-out: IC50
Text: as §1

SF-268 cells [15] = assay: Cell Titer-Glo cytotoxicity assay, SF-268; type: cell-based; details: Homo sapiens; SF-268, Cell Titer-Glo, 72 h; read-out: IC50
Text: as §1

NCI/ADR RES cells [16] = assay: Cell Titer-Glo cytotoxicity assay, NCI/ADR-RES; type: cell-based, human; details: Homo sapiens; NCI/ADR-RES, Cell Titer-Glo, 72 h; read-out: IC50
Text: as §1

HT-29 cells = assay: MTT cytotoxicity assay, HT-29; type: cell-based; details: Homo sapiens; HT-29, MTT, 24 h; read-out: IC50
Text: The IC50 value for each library member represents at least twelve replicates of dose-response experiments conducted over five concentrations. […] In this assay, live cells were distinguished by the intracellular enzymatic activity that converts the cell-permeable molecule MTT to strongly colored formazan crystals, which are retained within live cells and absorb light at 570 nm.
MTT Cytotoxicity Assay. HT-29 cell lines were maintained in RPMI medium 1640 supplemented with 10% (wt/vol) FBS and 1% penicillin-streptomycin (PS) (100 units/mL and 100 μg/mL). Cells were harvested by trypsinization using 0.25% trypsin and 0.1% EDTA and plated at a density of 2,000-5,000 cells per well of each 96-well microtiter plate. Cells were grown for 24 h at 37° C., with 5% CO2/95% air in a humidified incubator to allow cell attachment to occur before compound addition. Library members were stored at −20° C. under desiccating conditions before the assay. Library member stocks (1000×) were prepared in falcon tubes (BD Biosciences). Five dilutions were made with DMSO at 1000× the final concentration used in the assay. The 1000× stocks (3 μL) were diluted with complete culture medium (3 mL). Each plate contained twelve replicates of cells treated with 0.1% DMSO in complete cell culture medium that served as an individual negative control. Library member stocks (1×, 200 μL) were added to aspirated cells and replicated twelve times on each plate. Cells were incubated with the library members for 24 h before optical density reading. Test plates were removed from the incubator and washed once in sterile PBS to remove serum containing library members. Freshly-made 10×MTT solution in sterile PBS (5 mg/mL) was diluted 1:10 in serum-free culture medium and was sterilized using a 0.2 μm filter. Diluted MTT solution (1×, 50 μL) was added to each well and the plates were incubated in the dark for 2 h. Test plates were centrifuged at 1800×g for 5 min at 4° C. using a Beckman GPR centrifuge. MTT solution was removed by aspiration and 100 μL DMSO was added to each well to lyse cells and solubilize formazan crystals. Test plates were incubated in the dark at room temperature for 10 min. Plates were read for optical density at 570 nm.
IC50 Calculations. For each library member, at least three dose-response experiments were conducted on separate plates. […] To calculate IC50, percent inhibitions were plotted as a function of log[concentration] and then fit to a four-parameter logistic model that allowed for a variable Hill slope by using XLFIT 4.1 (ID Business Solutions, Emeryville, Calif.).

SK-OV-3 cells [17] = assay: Cell Titer-Glo cytotoxicity assay, SK-OV-3; type: cell-based; details: Homo sapiens; SK-OV-3, Cell Titer-Glo, 72 h; read-out: IC50
Text: as §1

NCI-H460 cells [18] = assay: Cell Titer-Glo cytotoxicity assay, NCI-H460; type: cell-based, human; details: Homo sapiens; NCI-H460, Cell Titer-Glo, 72 h; read-out: IC50
Text: as §1

human cancer cell lines = assay: Cytotoxicity across the panel of human cancer cell lines (average, high-throughput assays); type: cell-based
Text: as §1

MCF7 cells [19] = assay: Calcein AM cytotoxicity assay, MCF7; type: cell-based; details: Homo sapiens; MCF7, Calcein AM, 72 h; read-out: IC50
Text: as §1

[20] = average across eight human cancer cell lines, MTT (HT-29) values excluded
[21] = average across eight human cancer cell lines, MTT (HT-29) values excluded, read-out: Cancerous Average IC50 / Average IC50 in Cancer Cell Lines

| Structure (SMILES) | IC50 (NCI-H460 cells [2]) [µM] | IC50 (SF-268 cells [3]) [µM] | IC50 (MCF7 cells [4]) [µM] | IC50 (SK-OV-3 cells [5]) [µM] | IC50 (NCI/ADR RES cells [6]) [µM] | IC50 [7] [µM] | IC50 (HCT-116 cells [8]) [µM] | IC50 [9] [µM] | IC50 (NmuMG Cell Line) [µM] | IC50 (HCT-116 cells [10]) [µM] | IC50 (Hep3B cells [11]) [µM] | IC50 (Hep3B cells [12]) [µM] | IC50 (Du145 cells [13]) [µM] | IC50 (Du145 cells [14]) [µM] | IC50 (SF-268 cells [15]) [µM] | IC50 (NCI/ADR RES cells [16]) [µM] | IC50 (HT-29 cells) [µM] | IC50 (SK-OV-3 cells [17]) [µM] | IC50 (NCI-H460 cells [18]) [µM] | IC50 (human cancer cell lines; [21]) [µM] | further results |
| --- | --- | --- | --- | --- | --- | --- | --- | --- | --- | --- | --- | --- | --- | --- | --- | --- | --- | --- | --- | --- | --- |
| O=C(CCCCCCC(=O)Nc1cccnc1)NO [Compound 7, pyroxamide] |  |  |  |  |  |  |  |  |  |  |  |  |  |  |  |  |  |  |  |  | IC50 (HCT-116 cells [1]): 6.5 ± 0.5 µM; IC50 (several cell lines): 1 to 20 µM |
| CC(C)CN=C=S [Compound 15, 1-isothiocyanato-2-methylpropane] | > 50 | > 50 | > 50 | > 50 | > 50 | > 200 | 27.6 | > 200 | > 200 | > 50 | > 30 | 32.8 | > 50 | > 50 | > 50 | > 50 | > 50 | > 50 | > 50 | > 50 | IC50 (human cancer cell lines; Homo sapiens, Calcein AM and CellTiter Glo, all cell lines (FIG. 3 legend), read-out: IC50, all cell lines): > 50 µM; Cancerous Average IC50 / Average IC50 in Cancer Cell Lines (human cancer cell lines; [20]): >50.00^b μM; IC50 (MCF7 cells [19]): > 50 µM |
| S=C=NC1CC1 [Compound 17, isothiocyanatocyclopropane] | > 50 | > 50 | 12.6 | > 30 | > 50 | > 200 | > 50 | > 200 | > 200 | > 50 | > 30 | > 30 | 29.7 | > 50 | > 50 | > 50 | > 50 | > 50 | > 50 | > 50 | Cancerous Average IC50 / Average IC50 in Cancer Cell Lines (human cancer cell lines; [20]): >50.00^c μM; IC50 (MCF7 cells [19]): 15.1 µM |
| S=C=Nc1ccccc1 [Compound 19, 1-isothiocyanatobenzene] | > 50 | 2.32 | > 50 | > 50 | > 20 | > 200 | > 20 | > 200 | > 200 | > 20 | > 20 | > 50 | > 50 | > 50 | > 50 | > 20 | > 50 | > 50 | > 20 | >50.00 | IC50 (MCF7 cells [19]): > 50 µM |
| S=C=Nc1ccc(Br)cc1 [Compound 20, 1-bromo-4-isothiocyanatobenzene] | > 50 | > 50 | 17.1 | > 50 | > 50 | 183 | > 50 | 21.4 | 183 | 21.6 | > 50 | > 50 | > 50 | 41.4 | 24.9 | 23.1 | > 50 | 19.6 | 10.4 | > 50 | Cancerous Average IC50 / Average IC50 in Cancer Cell Lines (human cancer cell lines; [20]): >50.00^e μM; IC50 (MCF7 cells [19]): 26.7 µM |
| S=C=NCc1ccco1 [Compound 24, 2-(isothiocyanatomethyl)furan] | > 50 | > 50 | > 50 | > 30 | 21.6 | 151 | > 50 | > 200 | 151 | > 50 | > 30 | > 30 | > 50 | > 50 | > 50 | > 50 | > 50 | > 50 | > 50 | > 50 | IC50 (MCF7 cells [19]): > 50 µM |
| S=C=NCc1ccccc1-c1ccccc1 [Compound 33, 1-(isothiocyanatomethyl)-2-phenylbenzene] | 6.44 | 4.79 | 3.63 | 5.93 | 4.12 | < 12.5 | 5.56 | 80.1 | 180 | 4.64 | 4.24 | 10.6 | 3.16 | 5.25 | 6.39 | 4.11 | 39.9 | 5.01 | 8.95 | 4.96 | selectivity for cancer cells over NmuMG cells (human cancer cell lines; IC50 in NmuMG versus average IC50 in cancer cell lines): 36.3 fold; further fold increase in potency from multiple phenyl rings (human cancer cell lines; average IC50 compared with single-ring 23 and 38): ~2 fold; IC50 (MCF7 cells [19]): 1.6 µM |
| Cc1c(N=C=S)c(=O)n(-c2ccccc2)n1C [Compound 37, 4-isothiocyanato-2,3-dimethyl-1-phenyl-1,2-dihydropyrazol-5-one] | > 50 | > 50 | > 50 | > 50 | > 50 | > 200 | > 50 | > 200 | > 200 | > 50 | > 50 | > 50 | > 50 | > 50 | > 50 | > 50 | > 50 | > 50 | > 50 | > 50 | IC50 (MCF7 cells [19]): > 50 µM |
| S=C=NCCC1=CCCCC1 [Compound 39, 1-(2-isothiocyanatoethyl)cyclohex-1-ene] | 28.6 | 3.89 | 19.8 | 19.5 | 12.2 | 13 | 19 | > 200 | 13 | 16.4 | 16.1 | 28.5 | 25.5 | 18.6 | 13.6 | 26.9 | 45.3 | 24.1 | 36.4 | 18.3 | IC50 (MCF7 cells [19]): 27.5 µM |
